Consider 1 compound from patent publication US7955294B2, “Intermittent dosing of nitric oxide gas” (Sensormedics Corporation, priority 2004, dated 2011).

SMILES strings stand for the structures.

Test [1] relates to mycothiol-deficient Mycobacterium smegmatis Mutant MshA. Description: Survival of mycothiol-deficient mutant versus wild type on exposure to NO gas (FIG. 10). The class given is cell-based. The settings on record: 200 ppm NO gas; wild type counterpart mc^2 155. As to the method:
(§1) Additional studies were performed to test the hypothesis that the effect of NO gas in killing microorganisms is related to thiol function. […] This may be due to Mycobacteria having an exceptional thiol, mycothiol, that maintains the redox balance in the cell and protects the cell from nitrosative and oxidative stress. In order to test this hypothesis, sensitivities to NO gas was compared between mycothiol-deficient Mycobacterium smegmatis Mutant MshA to its wild type counterpart, mc^2 155 by exposing both strains to 200 ppm of NO gas. MshA is an enzyme needed in mycothiol biosynthesis.

The subject of test [2] is P. aeruginosa (clinical strain from Cystic Fibrosis). The experiment in a line: Survival of bacteria under cycled high/low NO gas exposure (FIG. 8). The format is cell-based. Conditions: 160 ppm NO gas 30 minutes then 20 ppm 3.5 hours, cycled every 4 hours for 24 hours; compared to air. Here is the method: (§2) The effectiveness of the intermittent high dose delivery of nitric oxide gas in combating microorganisms was tested and verified. Briefly, the experimental methods were as follows. Inoculums of varying bacteria was prepared to a suspension of 2.5×10^8 cfu/ml, and diluted 1:1000 in sterile normal saline. Three milliliters of the inoculums were used per well in a sterile culture place. Exposure of the inoculums were performed in an exposure chamber, which has been described for example, in Ghafarri, A. et al., “A direct nitric oxide gas delivery system for bacterial and mammalian cell cultures,” Nitric Oxide. 12(3):129-40 (May 2005), which is hereby incorporated by reference as if fully set forth herein. The inoculums were exposed to 160 ppm of NO gas at a flow rate of 2.5 liters per minute for 30 minutes followed by exposure to 20 ppm of NO gas for 3.5 hours. The exposure to high and low concentrations of NO gas was repeatedly cycled every 4 hours for 24 hours. At various times (e.g., 0, 4, 8, and 12 hours), samples were taken and plated to determine the survivability of the bacteria as determined by counting cfu/ml.
(§3) FIGS. 6-9 show the survival of various bacteria used in the experiment with NO gas compared to exposure to air as control.

The next test has as its system Mycobacteria. The experiment in a line: Sensitivity of various microorganisms to NO gas damage. The class given is cell-based. Conditions: compared with various other microorganisms. Here is the method: as §1
A further test concerns E. coli. The experiment in a line: Survival of bacteria under cycled high/low NO gas exposure (FIG. 9). The class given is cell-based. Conditions: 160 ppm NO gas 30 minutes then 20 ppm 3.5 hours, cycled every 4 hours for 24 hours; compared to air. As to the method: as §2, §3
For a further test, the system named is S. aureus (ATCC#25923). Description: Survival of bacteria under cycled high/low NO gas exposure (FIG. 6). The format is cell-based. Conditions: 160 ppm NO gas 30 minutes then 20 ppm 3.5 hours, cycled every 4 hours for 24 hours; compared to air. Here is the method:
as §2, §3

The subject of test [3] is P. aeruginosa (ATCC#27853). Description: Survival of bacteria under cycled high/low NO gas exposure (FIG. 7). The class given is cell-based. The settings on record: 160 ppm NO gas 30 minutes then 20 ppm 3.5 hours, cycled every 4 hours for 24 hours; compared to air. Here is the method: as §2, §3
For test [4], the system named is mycothiol in wild type M. smegmatis. The experiment in a line: Mycothiol level by HPLC after NO gas exposure (FIG. 11). The format is cell-based, Mycobacterium smegmatis. Conditions: 400 ppm NO gas, compared to exposure to air. As to the method:
Further experiments were conducted to assay and measure the mycothiol level using HPLC in wild type M. smegmatis after exposure to 400 ppm NO gas and were compared to mycothiol level after exposure to air.

Turning to `[N]=O` [NO gas, nitric oxide], in test [1], the “sensitivity of MshA mutant to NO gas versus wild type” value is “more sensitive” and the “time to kill MshA mutant versus wild type” value is on record as “killed in less time than its wild type counterpart”. The “survival of P. aeruginosa clinical strain from Cystic Fibrosis (cfu/ml)” value in test [2] is “effective method of killing the bacteria”. Also, the “sensitivity of Mycobacteria to NO gas damage” value in the test with Mycobacteria is reported as “less sensitive”. For the same compound, the “survival of E. coli (cfu/ml)” value in the test with E. coli is given as “effective method of killing the bacteria”. Also, in the test with S. aureus (ATCC#25923), the “survival of S. aureus (cfu/ml)” value is reported as “effective method of killing the bacteria”. The “survival of P. aeruginosa ATCC#27853 (cfu/ml)” value in test [3] is given as “effective method of killing the bacteria”. Besides, in test [4], the “level of mycothiol in the mycobacterium” value was “reduced compared to exposure to air”.
